Test results taken from patent US10968217B2, “Tetrahydropyridopyrimidines for the treatment and prophylaxis of hepatitis B virus infection” (Hoffmann-La Roche Inc., priority 2016, dated 2021).

What was measured:
HBsAg = HBsAg assay (CLIA of secreted HBsAg in HepG2.2.15 culture supernatant); assay type: cell-based, HBV; conditions: Hepatitis B virus, HepG2.2.15, read-out: IC50 (HBsAg assay)
Method: (§1) HepG2.2.15 cells (Acs et al. Proc Natl Acad Sci USA, 84, (1987), 4641-4), a constitutively HBV-expressing cell line were cultured in DMEM+Glutamax-I medium (Invitrogen, Carlsbad, Calif., USA), supplemented with 10% fetal bovine serum (Invitrogen) and G418 (Invitrogen) at a final concentration of 200 mg/L and maintained in 5% CO2 at 37° C.
HepG2.2.15 cells were seeded in duplicate into white, 96-well plates at 1.5×10^4 cells/well. The cells were treated with a three-fold serial dilution series of the compounds in DMSO. The final DMSO concentration in all wells was 1% and DMSO was used as no drug control.
The HBsAg chemiluminescence immunoassay (CLIA) kit (Autobio Diagnostics Co., Zhengzhou, China, Catalog number: CL0310-2) was used to measure the levels of secreted HBV antigens semi-quantitatively. For the detection 50 μL/well culture supernatant was used and HBsAg was quantified using HBsAg chemiluminescence immunoassay (CLIA) kit (Autobio Diagnostics Co., Zhengzhou, China, Catalog number: CL0310-2), 50 μL of the supernatant was transferred to the CLIA assay plate and 50 μL of enzyme conjugate reagent was added into each well. The plates were sealed and gently agitated for 1 hour at room temperature. The supernatant-enzyme-mixture was discarded and wells were washed 6 times with 300 μL of PBS. The residual liquid was removed by plating the CLIA plate right side down on absorbent tissue paper. 25 μL of substrates A and B were added to each well. Luminance was measured using a luminometer (Mithras LB 940 Multimode Microplate Reader) after 10 minutes incubation. Dose-response curves were generated and the IC50 value was extrapolated by using the E-WorkBook Suite (ID Business Solutions Ltd., Guildford, UK). The IC50 was defined as the compound concentration at which HBsAg secretion was reduced by 50% compared to the no drug control.

HBV DNA = HBV DNA assay (real-time qPCR of extracellular HBV DNA, HepG2.2.15 cells); assay type: cell-based; conditions: Hepatitis B virus, 144 h, extracellular HBV DNA in supernatant, six days after treatment, read-out: IC50 (Anti HBV DNA production activity)
Method: as §1
The assay employs real-time qPCR (TaqMan) to directly measure extracellular HBV DNA copy number in the cell supernatant. HepG2.2.15 cells were plated in 96-well microtiter plates before treatment with complete medium (DMEM, Glutamax, 10% FBS, 1% Penicillin/Streptomycin, 250 μg/mL Genetycin, final DMSO concentration is 1%). Only the interior wells were utilized to reduce “edge effects” observed during cell culture, the exterior wells were filled with complete medium to help minimize sample evaporation. […]

| Compound | IC50 (HBsAg) [µM] | IC50 (HBV DNA) [µM] |
| --- | --- | --- |
| Cc1ccsc1C(=O)N1CCc2nc(-c3ccccn3)ncc2C1C (stereo not shown) [Example 50, [5-Methyl-2-(2-pyridyl)-7,8-dihydro-5H-pyrido[4,3-d]pyrimidin-6-yl]-(3-methyl-2-thienyl)methanone] | 27.7 |  |
| CC1c2cnc(-c3ncccn3)nc2CCN1C(=O)c1nn(Cc2ccccc2)c2ccccc12 (stereo not shown) [Example 65, (1-Benzylindazol-3-yl)-(5-methyl-2-pyrimidin-2-yl-7,8-dihydro-5H-pyrido[4,3-d]pyrimidin-6-yl)methanone] | 0.39 |  |
| COc1c(F)cc(C(=O)N2CCc3nc(-c4ccccn4)ncc3C2)cc1F [Example 30, (3,5-Difluoro-4-methoxy-phenyl)-[2-(2-pyridyl)-7,8-dihydro-5H-pyrido[4,3-d]pyrimidin-6-yl]methanone] | 25.2 |  |
| O=C(c1ccc(C(F)(F)F)cc1)N1CCc2nc(-c3ccccn3)ncc2C1 [Example 1, [2-(2-Pyridyl)-7,8-dihydro-5H-pyrido[4,3-d]pyrimidin-6-yl]-[4-(trifluoromethyl)phenyl]methanone] | 15.7 |  |
| CC1c2cnc(-c3ccccn3)nc2CCN1C(=O)c1ccc2[nH]ncc2c1 (stereo not shown) [Example 47, 1H-indazol-5-yl-[5-methyl-2-(2-pyridyl)-7,8-dihydro-5H-pyrido[4,3-d]pyrimidin-6-yl]methanone] | 2.47 |  |
| Cc1cc(C(=O)N2CCc3nc(-c4ccccn4)ncc3C2)ccc1F [Example 20, (4-Fluoro-3-methyl-phenyl)-[2-(2-pyridyl)-7,8-dihydro-5H-pyrido[4,3-d]pyrimidin-6-yl]methanone] | 7.85 |  |
| O=C(c1ccc(O)c(Cl)c1)N1CCc2nc(-c3ccccn3)ncc2C1 [Example 23, (3-chloro-4-hydroxy-phenyl)-[2-(2-pyridyl)-7,8-dihydro-5H-pyrido[4,3-d]pyrimidin-6-yl]methanone] | 21.2 |  |
| CCOc1ccc(C(=O)N2CCc3nc(-c4ccccn4)ncc3C2)cc1F [Example 13, (4-Ethoxy-3-fluoro-phenyl)-[2-(2-pyridyl)-7,8-dihydro-5H-pyrido[4,3-d]pyrimidin-6-yl]methanone] | 6.56 |  |
| COc1ccc(C(=O)N2CCc3nc(-c4ccccn4)ncc3C2C)s1 (stereo not shown) [Example 58, (5-Methoxy-2-thienyl)-[5-methyl-2-(2-pyridyl)-7,8-dihydro-5H-pyrido[4,3-d]pyrimidin-6-yl]methanone] | 0.279 | 41.9 |
| CC1c2cnc(-c3ccccn3)nc2CCN1C(=O)c1cccs1 (stereo not shown) [Example 49, [5-Methyl-2-(2-pyridyl)-7,8-dihydro-5H-pyrido[4,3-d]pyrimidin-6-yl]-(2-thienyl)methanone] | 1.11 |  |
| O=C(c1ccccc1)N1CCc2nc(-c3ccccn3)ncc2C1 [Example 4, Phenyl-[2-(2-pyridyl)-7,8-dihydro-5H-pyrido[4,3-d]pyrimidin-6-yl]methanone] | 24.3 |  |
| Cc1cc(C(=O)N2CCc3nc(-c4ccccn4)ncc3C2)no1 [Example 33, (5-Methylisoxazol-3-yl)-[2-(2-pyridyl)-7,8-dihydro-5H-pyrido[4,3-d]pyrimidin-6-yl]methanone] | 8.11 |  |
| O=C(c1ccc([N+](=O)[O-])cc1)N1CCc2nc(-c3ccccn3)ncc2C1 [Example 3, (4-Nitrophenyl)-[2-(2-pyridyl)-7,8-dihydro-5H-pyrido[4,3-d]pyrimidin-6-yl]methanone] | 27.3 |  |
| CC1c2cnc(-c3ccccn3)nc2CCN1C(=O)c1ccc(Cl)s1 (stereo not shown) [Example 42, (5-Chloro-2-thienyl)-[5-methyl-2-(2-pyridyl)-7,8-dihydro-5H-pyrido[4,3-d]pyrimidin-6-yl]methanone] | 0.258 |  |
| N#Cc1ccc(C(=O)N2CCc3nc(-c4ccccn4)ncc3C2)cc1 [Example 2, 4-[2-(2-Pyridyl)-7,8-dihydro-5H-pyrido[4,3-d]pyrimidine-6-carbonyl]benzonitrile] | 17 |  |
